Laboratory results taken from the supplement of paper PMC10307832.

Key:
Test in all cases: relative viability (nuclei count vs DMSO), 5 days (fraction); higher = more cells survive
[1] = compound: C/C(=N\NC(=S)N1CCC1)/C2=CC=CC=N2 + CC(=O)c1c(C)c2cnc(Nc3ccc(N4CCNCC4)cn3)nc2n(C2CCCC2)c1=O [Palbociclib] (partner 0.5 µM)
Procedure, shortened: (§1)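 Lung cancer cell lines in 1536-well plates got either a single drug or a fixed anchor-drug dose together with five library-drug doses (not always all listed) in √10 steps, by pin tool, on the day after seeding. Nuclei were counted after 5 days, and relative viability is the treated-to-vehicle ratio of nuclei counts. Values are medians of duplicate plates.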

[2] = compound: C/C(=N\NC(=S)N1CCC1)/C2=CC=CC=N2 + CC(C)C[C@H](NC(=O)[C@H](Cc1ccccc1)NC(=O)c1cnccn1)B(O)O [Bortezomib] (partner 0.002 µM)
Procedure, shortened: as §1

[3] = compound: C/C(=N\NC(=S)N1CCC1)/C2=CC=CC=N2 + COc1cc2c(Oc3ccc(NC(=O)C4(C(=O)Nc5ccc(F)cc5)CC4)cc3F)ccnc2cc1OCCCN1CCOCC1 [Foretinib] (partner 0.25 µM)
Procedure, shortened: as §1

[4] = compound: C/C(=N\NC(=S)N1CCC1)/C2=CC=CC=N2 + CS(=O)(=O)N1CCN(Cc2cc3nc(-c4cccc5[nH]ncc45)nc(N4CCOCC4)c3s2)CC1 [Pictilisib] (partner 1 µM)
Procedure, shortened: as §1

Row | Cell Line | relative viability ([1]; first compound 0.05 µM) | relative viability ([1]; first compound 0.1581 µM) | relative viability ([1]; first compound 0.5 µM) | relative viability ([1]; first compound 1.581 µM) | relative viability ([1]; first compound 5 µM) | relative viability ([2]; first compound 0.05 µM) | relative viability ([2]; first compound 0.1581 µM) | relative viability ([2]; first compound 0.5 µM) | relative viability ([2]; first compound 1.581 µM) | relative viability ([2]; first compound 5 µM) | relative viability ([3]; first compound 0.05 µM) | relative viability ([3]; first compound 0.1581 µM) | relative viability ([3]; first compound 0.5 µM) | relative viability ([3]; first compound 1.581 µM) | relative viability ([3]; first compound 5 µM) | relative viability ([4]; first compound 0.05 µM) | relative viability ([4]; first compound 0.1581 µM) | relative viability ([4]; first compound 0.5 µM) | relative viability ([4]; first compound 1.581 µM) | relative viability ([4]; first compound 5 µM)
1 | NCI-H522 | 0.432 | 0.376 | 0.284 | 0.381 | 0.412 |  |  |  |  |  |  |  |  |  |  |  |  |  |  | 
2 | NCI-H596 |  |  |  |  |  | 0.518 | 0.309 | 0.237 | 0.233 | 0.276 | 0.461 | 0.725 | 0.208 | 0.199 | 0.272 | 0.251 | 0.257 | 0.223 | 0.212 | 0.277
3 | NCI-H1395 | 0.33 | 0.333 | 0.329 | 0.366 | 0.381 |  |  |  |  |  | 0.381 | 0.368 | 0.369 | 0.351 | 0.349 | 0.386 | 0.371 | 0.305 | 0.343 | 0.377
4 | NCI-H1563 |  |  |  |  |  | 0.664 | 0.701 | 0.611 | 0.574 | 0.553 | 0.543 | 0.63 | 0.576 | 0.529 | 0.581 | 0.593 | 0.519 | 0.614 | 0.561 | 0.584
5 | NCI-H1648 | 0.258 | 0.301 | 0.322 | 0.352 | 0.337 |  |  |  |  |  |  |  |  |  |  |  |  |  |  | 
6 | NCI-H1703 |  |  |  |  |  | 0.0746 | 0.0958 | 0.166 | 0.134 | 0.171 | 0.163 | 0.142 | 0.163 | 0.206 | 0.246 | 0.102 | 0.0942 | 0.162 | 0.159 | 0.167
7 | NCI-H1792 | 0.426 | 0.398 | 0.363 | 0.272 | 0.259 | 0.478 | 0.5 | 0.219 | 0.16 | 0.126 |  |  |  |  |  | 0.193 | 0.149 | 0.122 | 0.0959 | 0.0891
8 | NCI-H1793 | 0.191 | 0.162 | 0.146 | 0.155 | 0.174 |  |  |  |  |  | 0.229 | 0.382 | 0.157 | 0.143 | 0.188 | 0.195 | 0.203 | 0.163 | 0.172 | 0.15
9 | NCI-H1944 | 0.253 | 0.3 | 0.166 | 0.148 | 0.129 |  |  |  |  |  | 0.624 | 0.38 | 0.181 | 0.143 | 0.166 | 0.229 | 0.305 | 0.241 | 0.182 | 0.182
10 | NCI-H2170 | 0.37 | 0.378 | 0.17 | 0.131 | 0.121 |  |  |  |  |  | 0.871 | 0.341 | 0.312 | 0.199 | 0.203 | 0.158 | 0.188 | 0.178 | 0.192 | 0.167
11 | NCI-H2342 | 0.276 | 0.283 | 0.274 | 0.253 | 0.255 |  |  |  |  |  | 0.255 | 0.244 | 0.263 | 0.24 | 0.233 |  |  |  |  | 
12 | SK-MES-1 | 0.221 | 0.2 | 0.2 | 0.174 | 0.177 |  |  |  |  |  | 0.201 | 0.257 | 0.223 | 0.166 | 0.238 | 0.168 | 0.174 | 0.153 | 0.139 | 0.162
13 | SW 900 | 0.171 | 0.136 | 0.134 | 0.175 | 0.197 |  |  |  |  |  | 0.117 | 0.114 | 0.0636 | 0.068 | 0.15 |  |  |  |  | 
